Measured values reported in US10669283B2, “Compound and pharmacologically acceptable salt thereof” (MEIJI SEIKA PHARMA CO., LTD., priority 2016, dated 2020).

What follows are molecules tested on PDE4 (assay: PDE4 inhibition, scintillation proximity assay (SPA)). Conditions: scintillation proximity assay (SPA); evaluated as classes A, B, C; read-out: PDE4 Inhibitory Activity (concentration for the inhibition rate of 50%).
Assay type: biochemical
In short: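 Scintillation proximity read-out: [2,8-3H]-cAMP hydrolysis by PDE4 ran 120 min at room temperature in Tris-HCl pH 7.4 buffer with 8.3 mM MgCl2, 1.7 mM EGTA and 3 mg/mL BSA. Bead-bound product (YSi-SPA with ZnSO4, 15 min) counted; blank lacks enzyme, control has DMSO only.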
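Throughout, for PDE4 Inhibitory Activity (concentration for the inhibition rate of 50%): A below 100 nM B 100 to below 1000 nM C 1000 nM or more.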

| Compound | IC50 [nM] |
| --- | --- |
| OCC(CO)COc1cc(-c2nccs2)c2oc(N3CC4CCC(C3)N4)nc2c1 [Example 71, 2-(((2-(3,8-Diazabicyclo[3.2.1]octan-3-yl)-7-(thiazol-2-yl)benzo[d]oxazol-5-yl)oxy)methyl)propane-1,3-diol] | < 100 |
| CC(C)(O)COC(c1ccc(-c2cscn2)c2oc(N3CC4CC(C3)N4)nc12)C(F)(F)F (centres unmarked) [Example 284, 1-(1-(2-(3,6-Diazabicyclo[3.1.1]heptan-3-yl)-7-(thiazol-4-yl)benzo[d]oxazol-4-yl)-2,2,2-trifluoroethoxy)-2-methylpropan-2-ol] | < 100 |
| CC(O)(c1ccc(-c2nccs2)c2oc(N3CC4CCC(C3)N4)nc12)C(F)(F)F (centres unmarked) [Example 236, 2-(2-(3,8-Diazabicyclo[3.2.1]octan-3-yl)-7-(thiazol-2-yl)benzo[d]oxazol-4-yl)-1,1,1-trifluoropropan-2-ol] | < 100 |
| OC(c1cc(-c2cscn2)c2oc(N3CC4CC(C3)N4)nc2c1OC(F)(F)F)C(F)F (centres unmarked) [Example 300, 1-(2-(3,6-Diazabicyclo[3.1.1]heptan-3-yl)-7-(thiazol-4-yl)-4-(trifluoromethoxy)benzo[d]oxazol-5-yl)-2,2-difluoroethan-1-ol] | < 100 |
| COC(C)(c1cc(-c2nccs2)c2oc(N3CC4CC(C3)N4)nc2c1OC(F)(F)F)C(F)(F)F (centres unmarked) [Example 214, 2-(3,6-Diazabicyclo[3.1.1]heptan-3-yl)-7-(thiazol-2-yl)-5-(1,1,1-trifluoro-2-methoxypropan-2-yl)-4-(trifluoromethoxy)benzo[d]oxazole] | < 100 |
| OC(c1cc(-c2nccs2)c2oc(N3CC4CC(C3)N4)nc2c1)C(F)(F)F (centres unmarked) [Example 135, 1-(2-(3,6-Diazabicyclo[3.1.1]heptan-3-yl)-7-(thiazol-2-yl)benzo[d]oxazol-5-yl)-2,2,2-trifluoroethan-1-ol] | < 100 |
| FC(F)(F)c1c(Cl)cc(-c2nccs2)c2oc(N3CC4CCC(C3)N4)nc12 [Example 20, 2-(3,8-Diazabicyclo[3.2.1]octan-3-yl)-5-chloro-7-(thiazol-2-yl)-4-(trifluoromethyl)benzo[d]oxazole] | < 100 |
| FC(F)(F)COC(c1cc(-c2nccs2)c2oc(N3CC4CCC(C3)N4)nc2c1)C(F)(F)F (centres unmarked) [Example 146, 2-(3,8-Diazabicyclo[3.2.1]octan-3-yl)-7-(thiazol-2-yl)-5-(2,2,2-trifluoro-1-(2,2,2-trifluoroethoxy)ethyl)benzo[d]oxazole] | < 100 |
| CC(C)C(O)c1cc(-c2nccs2)c2oc(N3CC4CCC(C3)N4)nc2c1OC(F)(F)F (centres unmarked) [Example 205, 1-(2-(3,8-Diazabicyclo[3.2.1]octan-3-yl)-7-(thiazol-2-yl)-4-(trifluoromethoxy)benzo[d]oxazol-5-yl)-2-methylpropan-1-ol] | < 100 |
| CCOC(=O)c1cc(-c2nccs2)c2oc(N3CC4CCCC(C3)N4)nc2c1OC(F)(F)F [Example 188, Ethyl 2-(3,9-diazabicyclo[3.3.1]nonan-3-yl)-7-(thiazol-2-yl)-4-(trifluoromethoxy)benzo[d]oxazole-5-carboxylate] | < 100 |
| c1csc(-c2cc(OCC3COC3)cc3nc(N4CC5CCC(C4)N5)oc23)n1 [Example 70, 2-(3,8-Diazabicyclo[3.2.1]octan-3-yl)-5-(oxetan-3-ylmethoxy)-7-(thiazol-2-yl)benzo[d]oxazole] | < 100 |
| OCCOC(c1cc(-c2nccs2)c2oc(N3CC4CCC(C3)N4)nc2c1)C(F)(F)F (centres unmarked) [Example 149, 2-(1-(2-(3,8-Diazabicyclo[3.2.1]octan-3-yl)-7-(thiazol-2-yl)benzo[d]oxazol-5-yl)-2,2,2-trifluoroethoxy)ethan-1-ol] | < 100 |
| FC(F)(F)c1c(Cl)cc(-c2ccccn2)c2oc(N3CC4CCC(C3)N4)nc12 [Example 11, 2-(3,8-Diazabicyclo[3.2.1]octan-3-yl)-5-chloro-7-(pyridin-2-yl)-4-(trifluoromethyl)benzo[d]oxazole] | < 100 |
| Cc1ccc(-c2nccs2)c2oc(N3CC4CC(C3)N4)nc12 [Example 26, 2-(3,6-Diazabicyclo[3.1.1]heptan-3-yl)-4-methyl-7-(thiazol-2-yl)benzo[d]oxazole] | < 100 |
| Oc1ccc(-c2nccs2)c2oc(N3CC4CCC(C3)N4)nc12 [Example 78, 2-(3,8-Diazabicyclo[3.2.1]octan-3-yl)-7-(thiazol-2-yl) benzo[d]oxazol-4-ol] | < 100 |
| FC(F)(F)COc1cc(-c2nccs2)c2oc(N3CC4CCC(C3)N4)nc2c1 [Example 66, 2-(3,8-Diazabicyclo[3.2.1]octan-3-yl)-7-(thiazol-2-yl)-5-(2,2,2-trifluoroethoxy)benzo[d]oxazole] | < 100 |
| COC(c1ccc(-c2nccs2)c2oc(N3CC4CC(C3)N4)nc12)C(F)F (centres unmarked) [Example 130, 2-(3,6-Diazabicyclo[3.1.1]heptan-3-yl)-4-(2,2-difluoro-1-methoxyethyl)-7-(thiazol-2-yl)benzo[d]oxazole] | < 100 |
| COC(C)c1ccc(-c2nccs2)c2oc(N3CC4CC(C3)N4)nc12 (centres unmarked) [Example 241, 2-(3,6-Diazabicyclo[3.1.1]heptan-3-yl)-4-(1-methoxyethyl)-7-(thiazol-2-yl)benzo[d]oxazole] | < 100 |
| FC(F)(F)c1cc(-c2nccs2)c2oc(N3CC4CCCC(C3)N4)nc2c1 [Example 53, 2-(3,9-Diazabicyclo[3.3.1]nonan-3-yl)-7-(thiazol-2-yl)-5-(trifluoromethyl)benzo[d]oxazole] | < 100 |
| COc1ccc(-c2nccs2)c2oc(N3CC4CC(C3)N4)nc12 [Example 76, 2-(3,6-Diazabicyclo[3.1.1]heptan-3-yl)-4-methoxy-7-(thiazol-2-yl)benzo[d]oxazole] | < 100 |
| COCCOC(c1cc(-c2nccs2)c2oc(N3CC4CC(C3)N4)nc2c1)C(F)(F)F (centres unmarked) [Example 154, 2-(3,6-Diazabicyclo[3.1.1]heptan-3-yl)-7-(thiazol-2-yl)-5-(2,2,2-trifluoro-1-(2-methoxyethoxy)ethyl)benzo[d]oxazole] | < 100 |
| CC(O)C(F)(F)Oc1ccc(-c2cscn2)c2oc(N3CC4CC(C3)N4)nc12 (centres unmarked) [Example 309, 1-((2-(3,6-Diazabicyclo[3.1.1]heptan-3-yl)-7-(thiazol-4-yl)benzo[d]oxazol-4-yl)oxy)-1,1-difluoropropan-2-ol] | < 100 |
| OCc1cc(-c2nccs2)c2oc(N3CC4CCC(C3)N4)nc2c1OC(F)(F)F [Example 201, (2-(3,8-Diazabicyclo[3.2.1]octan-3-yl)-7-(thiazol-2-yl)-4-(trifluoromethoxy)benzo[d]oxazol-5-yl)methanol] | < 100 |
| CC(=O)c1ccc(-c2nccs2)c2oc(N3CC4CC(C3)N4)nc12 [Example 244, 1-(2-(3,6-Diazabicyclo[3.1.1]heptan-3-yl)-7-(thiazol-2-yl)benzo[d]oxazol-4-yl)ethan-1-one] | < 100 |
| OC(c1cc(-c2cscn2)c2oc(N3CC4CC(C3)N4)nc2c1OC(F)(F)F)C(F)F (centres unmarked) [Example 301, 1-(2-(3,6-Diazabicyclo[3.1.1]heptan-3-yl)-7-(thiazol-4-yl)-4-(trifluoromethoxy)benzo[d]oxazol-5-yl)-2,2-difluoroethan-1-ol] | < 100 |
| CC(=O)N(C)c1cc(-c2nccs2)c2oc(N3CC4CCC(C3)N4)nc2c1 [Example 101, N-(2-(3,8-diazabicyclo[3.2.1]octan-3-yl)-7-(thiazol-2-yl)benzo[d]oxazol-5-yl)-N-methylacetamide] | < 100 |
| OCC(F)(F)Oc1ccc(-n2cccn2)c2oc(N3CC4CC(C3)N4)nc12 [Example 320, 2-((2-(3,6-Diazabicyclo[3.1.1]heptan-3-yl)-7-(1H-pyrazol-1-yl)benzo[d]oxazol-4-yl)oxy)-2,2-difluoroethan-1-ol] | < 100 |
| COC(C)c1cc(-c2nccs2)c2oc(N3CC4CCC(C3)N4)nc2c1 (centres unmarked) [Example 110, 2-(3,8-Diazabicyclo[3.2.1]octan-3-yl)-5-(1-methoxyethyl)-7-(thiazol-2-yl)benzo[d]oxazole] | < 100 |
| OC(c1cc(-c2nccs2)c2oc(N3CC4CCC(C3)N4)nc2c1OC(F)(F)F)C(F)F (centres unmarked) [Example 206, 1-(2-(3,8-Diazabicyclo[3.2.1]octan-3-yl)-7-(thiazol-2-yl)-4-(trifluoromethoxy)benzo[d]oxazol-5-yl)-2,2-difluoroethan-1-ol] | < 100 |
| OC(COc1ccc(-c2nccs2)c2oc(N3CC4CC(C3)N4)nc12)C(F)(F)F (centres unmarked) [Example 277, 3-((2-(3,6-Diazabicyclo[3.1.1]heptan-3-yl)-7-(thiazol-2-yl)benzo[d]oxazol-4-yl)oxy)-1,1,1-trifluoropropan-2-ol] | < 100 |

Same assay, conditions: scintillation proximity assay; class symbols; read-out: PDE4 Inhibitory Activity

| Compound | IC50 [nM] |
| --- | --- |
| FC(F)(Oc1ccc(-c2nccs2)c2oc(N3CC4CC(C3)N4)nc12)c1nc2ccccc2o1 [Example 403, 4-(benzo [d]oxazol-2-yldifluoro-methoxy)-2-(3,6-diazabicyclo [3.1.1]heptan-3-yl)-7-(thiazol-2-yl)benzo[d] oxazole] | < 100 |
| O=C(O)c1ccc(-c2nccs2)c2oc(N3CC4CC(C3)N4)nc12 [Example 366, 2-(3,6-diazabicyclo [3.1.1]heptan-3-yl)-7-(thiazol-2-yl)benzo[d] oxazole-4-carboxylic acid] | 100 to 1000 |
| CSc1ccc(-c2nccs2)c2oc(N3CC4CC(C3)N4)nc12 [Example 345, 2-(3,6-diazabicyclo[3.1.1]heptan-3-yl)-4-(methylthio)-7-(thiazol-2-yl)benzo [d]oxazole] | < 100 |
| CC(C)(O)c1cc(-c2nccs2)c2oc(N3CC4CCC(C3)N4O)nc2c1OC(F)(F)F [Example 368, 3-(5-(2-hydroxy-propan-2-yl)-7-(thiazol-2-yl)-4-(trifluoromethoxy)benzo[d]oxazol-2-yl)-3,8-diazabicyclo [3.2.1]octan-8-ol] | 100 to 1000 |
| CC(O)(O)C(F)(F)Oc1ccc(-c2nccs2)c2oc(N3CC4CC(C3)N4)nc12 [Example 377, 1-((2-(3,6-diazabicyclo[3.1.1]heptan-3-yl)-7-(thiazol-2-yl)benzo[d]oxazol-4-yl)oxy)-1,1-difluoropropane-2,2-diol] | < 100 |
